According to patent publication US7655677B2, “Composition and method for controlling house insect pest” (priority 2002, dated 2010):

Tests used:
Assay type in all cases: in vivo
[1] = system: Reticulitermes speratus; test: Test Example 4: treated filter paper in Petri dish, termite mortality after 25 days
Method: Mortality (%)=(Number of dead termite workers/15 termite workers)×100
Further, by the Colby's formula, the theoretical value (%) of mortality can be calculated. In a case where the actual mortality (%) is higher than the theoretical value (%), it can be said that the composition of the present invention has a synergistic effect for controlling the house insect pest.
A filter paper having a diameter of 80 mm was placed in a plastic Petri dish, and 1 ml of a pesticide solution having a predetermined concentration, was dropped thereon. After the treatment, the solvent was sufficiently evaporated, and then, 1 ml of distilled water was impregnated to the treated filter paper, whereupon 10 termite workers (Reticulitermes speratus) were released. The plastic Petri dish was placed in a container having wet cotton laid over the bottom, and the container was maintained at 25° C. for 25 days, whereupon the number of dead termites in the Petri dish was examined, and the mortality was calculated in the same manner as in Test Example 1.

[2] = system: Reticulitermes speratus; test: Test Example 21: treated sandy soil with weather resistance operation, termite mortality; conditions: 1000 ppm
Method: Sandy soil passed through a sieve of 20 mesh was dried at a temperature of 60° C. to a constant weight, and 12 g of the soil thus obtained, was packed into a cup having a diameter of 60 mm. 3 ml of a pesticide solution adjusted to a predetermined concentration, was added and sufficiently mixed, whereupon it was maintained in a constant temperature chamber of 40° C. for 95 days to carry out the weather resistance operation. After the weather resistance operation, 10 termite workers (Reticulitermes speratus) were released on this test soil. The cup was placed in a container having wet cotton laid over the bottom, and the container was maintained at room temperature of 25° C. 2 Days later and 6 days later after releasing the termites, the number of dead termites in the cup was examined, and the mortality was calculated.

[3] = system: Coptotermes formosanus; test: Test Example 19: gel coated on Japanese red pine wood block, termite mortality with time
Text: A gel prepared by uniformity mixing 0.2 part by weight of […], 20 parts by weight of sorbitol, 3.5 parts by weight of cross-linked product of a starch/sodium acrylate copolymer, a predetermined amount of a sample compound and a predetermined amount of water, was coated in an amount of 110 g/m^2 on a dried rectangular parallelpiped wood block of Japanese red pine of 20 mm (L)×10 mm (R)×10 mm (T). This test specimen was put into a cylindrical cup made of acrylic resin (i.e. a cup having a hole with a diameter of 10 mm in the bottom and having hard plaster (Dental Stone) set at the bottom in a thickness of 10 mm), and 20 termite workers (Coptotermes formosanus) were released thereon. The cup was placed in a container having wet cotton laid over the bottom, and the container was maintained at room temperature of 25° C., whereby the number of dead termites in the cup was examined as the time passed, and the mortality was calculated.

[4] = system: Coptotermes formosanus; test: Test Example 18: dust-coated termite workers mixed with non-treated termites, mortality with time; conditions: 0.5% dust; for Mortality TS (Termite soldiers): 10 non-treated soldiers; for Mortality TW (Termite workers): 15 treated + 10 non-treated workers
Method: 1 mg of each dust prepared in the same manner as in Test Example 17, was uniformly dispersed in a small size glass Petri dish with a diameter of 45 mm, and 15 termite workers (Coptotermes formosanus) were released and treated for dust coating. The treated termite workers were put into a cylindrical cup made of acrylic resin (i.e. a cup having a hole with a diameter of 10 mm formed in the bottom and having hard plaster (Dental Stone) set at the bottom in a thickness of 10 mm) containing a bait log, together with 10 non-treated termite workers and 10 non-treated termite soldiers. The cup was placed in a container having wet cotton laid over the bottom, and the container was maintained at room temperature of 25° C., whereby the number of dead termites in the cup was examined as the time passed, and the mortality was calculated by the following formula.
Mortality of termite workers (%)=(Number of dead termite workers/15 treated termite workers+10 non-treated termite workers)×100
Mortality of termite soldiers (%) (Number of dead termite soldiers/10 non-treated termite soldiers)×100

[5] = system: Reticulitermes speratus; test: Test Example 9: treated filter paper in acrylic cup, termite mortality 5 and 20 days later; conditions: 1000 ppm
Method: A filter paper having a diameter of 80 mm was placed in a cylindrical cup made of acrylic resin having a diameter of 80 mm and a height of 60 mm (i.e. a cup having a hole with a diameter of 10 mm formed in the bottom and having hard plaster (Dental Stone) set at the bottom in a thickness of 10 mm), and 1 ml of a solution containing a sample compound in a predetermined concentration, was dropped thereon. Then, ten termite workers and one termite soldier (Reticulitermes speratus) were released thereon. The cup was placed in a container having wet cotton laid over the bottom, and the container was maintained at room temperature of 25° C., and 5 days later and 20 days later, the mortality of termites in the cup was examined.

[6] = system: Lasius japonicus; test: Test Example 22: cotton ball with compound in 10% cane sugar solution, ant mortality
Method: 10 Ants (Lasius japonicus) were put into a test tube together with a cotton ball impregnated with 0.5 ml of a solution containing a sample compound in a predetermined concentration and containing 10% of cane sugar. […]

[7] = weather resistance operation Negative, 2 Days later
[8] = weather resistance operation Positive (40° C. for 95 days), 2 Days later

SMILES: CC(=NN=C(Cc1ccc(C(F)(F)F)cc1)c1ccc(F)cc1)N(C)C [Compound No. II-2, [4′-fluoro-2-(4-trifluoromethylphenyl)acetophenone]N′-[1-(dimethylamino)ethylidene]hydrazone]
- Mortality ([1]; II-2 5 ppm alone): 0%
- Mortality ([1]; II-2 10 ppm alone): 10%
- Mortality [2, 7]: 50 (50) %
- abnormal ratio [2, 7]: 50 (50) %
- Mortality ([2]; weather resistance operation Negative, 6 Days later): 100%
- Mortality [2, 8]: 10%
- abnormal ratio [2, 8]: 15%
- Mortality ([2]; weather resistance operation Positive (40° C. for 95 days), 6 Days later): 95%
- Mortality ([3]; gel 0.005%, 2 Days later): 0%
- Mortality ([3]; gel 0.005%, 6 Days later): 0%
- Mortality ([3]; gel 0.005%, 12 Days later): 10%
- Mortality ([3]; gel 0.005%, 23 Days later): 30%
- Mortality ([3]; gel 0.005%, 34 Days later): 60%
- Mortality ([3]; gel 0.01%, 2 Days later): 0%
- Mortality ([3]; gel 0.01%, 6 Days later): 0%
- Mortality ([3]; gel 0.01%, 12 Days later): 10%
- Mortality ([3]; gel 0.01%, 23 Days later): 60%
- Mortality ([3]; gel 0.01%, 34 Days later): 100%
- Mortality ([3]; gel 0.05%, 2 Days later): 0%
- Mortality ([3]; gel 0.05%, 6 Days later): 0%
- Mortality ([3]; gel 0.05%, 12 Days later): 100%
- Mortality ([3]; gel 0.05%, 23 Days later): 100%
- Mortality ([3]; gel 0.05%, 34 Days later): 100%
- Mortality ([3]; gel 0.1%, 2 Days later): 0%
- Mortality ([3]; gel 0.1%, 6 Days later): 60%
- Mortality ([3]; gel 0.1%, 12 Days later): 100%
- Mortality ([3]; gel 0.1%, 23 Days later): 100%
- Mortality ([3]; gel 0.1%, 34 Days later): 100%
- Mortality TS (Termite soldiers) ([4]; 1 Day later): 0%
- Mortality TW (Termite workers) ([4]; 1 Day later): 0%
- Mortality TS (Termite soldiers) ([4]; 8 Days later): 0%
- Mortality TW (Termite workers) ([4]; 8 Days later): 4%
- Mortality TS (Termite soldiers) ([4]; 15 Days later): 40%
- Mortality TW (Termite workers) ([4]; 15 Days later): 52%
- Mortality TS (Termite soldiers) ([4]; 19 Days later): 100%
- Mortality TW (Termite workers) ([4]; 19 Days later): 100%
- Mortality ([5]; 5 Days later): 100%
- Mortality ([5]; 20 Days later): 100%
- Mortality ([6]; 10 ppm, 1 Day later): 0%
- Mortality ([6]; 10 ppm, 2 Days later): 0%
- abnormal ratio ([6]; 10 ppm, 2 Days later): 20%
- Mortality ([6]; 10 ppm, 3 Days later): 40%
- Mortality ([6]; 10 ppm, 8 Days later): 80%
- Mortality ([6]; 10 ppm, 11 Days later): 100%
- Mortality ([6]; 50 ppm, 1 Day later): 30%
- abnormal ratio ([6]; 50 ppm, 1 Day later): 70%
- Mortality ([6]; 50 ppm, 2 Days later): 100%
- Mortality ([6]; 50 ppm, 3 Days later): 100%
- Mortality ([6]; 50 ppm, 8 Days later): 100%
- Mortality ([6]; 50 ppm, 11 Days later): 100%
